Test results from patent US12459930B2, “Compounds for the inhibition of unregulated cell growth” (GODAVARI BIOREFINERIES LIMITED, priority 2018, dated 2025).
Several values for one entry are separate records, joined by “and”; a condition that tells them apart may be missing. Equal entries are not always repeated. Where two headings read alike, the source gives them in different places.

Assays:
[1] = test system: MDAMB231 breast cancer cell line; assay: In vitro antiproliferative assay (MTT assay), MDAMB231; type: cell-based; conditions: 48 hrs drug incubation, read-out: IC50 in micromolar, MDAMB231 (MTT assay)
Experimental: (§1) MTT assay is a simple and sensitive assay where, metabolic reducing activity of the cells is measured. The increase of this activity in time is taken as a parameter of cell growth. If treatment with a drug impairs this increase, the action is a consequence of growth inhibition, cell killing or both. […] All cell lines were cultured in a 37° C. incubator with a 5% CO2 environment. Compounds were dissolved in DMSO with a concentration of 0.1M (stock solution). Cells were seeded into 96-well plates at suitable plating efficiency.
(§2) Following plating efficiencies were standardized for MTT assay:
(§3) In the MTT procedure, the cells were plated in 96 well plates as per predetermined plating efficiency (Table1). The plates were then incubated for 24 hrs in 5% CO2 atmosphere at 37° C. Appropriate concentrations of the drugs were then added to the plate and further incubation was carried out for 48 hrs (in 5% CO2 atmosphere at 37° C.). The assay plate was then centrifuged twice at 3000 rpm for 3 mins and supernatant was then discarded. 100 ul of MTT solution (0.5 mg/ml) was then added to each well of the plate and it was further incubated for 4 hrs (in 5% CO2 atmosphere at 37° C.) Following 4 hr incubation, the plate was then centrifuged twice, and supernatant was aspirated off very carefully. 200 ul of DMSO was then added to each well to solubilize. MTT crystals and mixed well by shaking the plate. XY graph of log percent viability was then plotted against log drug concentration.

[2] = test system: PC3 prostate cancer cell line; assay: In vitro antiproliferative assay (MTT assay), PC3; type: cell-based; conditions: 48 hrs drug incubation, read-out: IC50 in micromolar, PC3 (MTT assay)
Experimental: as §1, §2, §3

[3] = test system: DU145 prostate cancer cell line; assay: In vitro antiproliferative assay (MTT assay), DU145; type: cell-based; conditions: 48 hrs drug incubation, read-out: IC50 in micromolar, DU145 (MTT assay)
Experimental: as §1, §2, §3

[4] = test system: MDAMB231 breast cancer cell line; assay: Soft agar colony-formation assay, MDAMB231; type: cell-based; conditions: 1 week, Alamar Blue, read-out: IC50 in micromolar, MDAMB231 (Soft Agar Assay)
Experimental: (§4) The Soft Agar Colony-formation Assay is an anchorage-independent growth assay in soft agar, which is one of the most stringent assays for detecting malignant transformation of cells. For this assay, malignant cells are cultured with appropriate controls in soft agar medium for 1-2 weeks. Following this incubation period, formed colonies can either be analyzed morphologically using cell stain and quantifying the number of colonies formed.
(§5) Briefly, for Soft Agar Assay a mixture of 50 ul of 2× medium (taken appropriately as per cell line) and 50 ul of 1.2% Bacto Agar were plated on to each well of 96 well micro titer assay plate. 10 ul of cells (of specific plating efficiency pre standardized for respective cell line) were mixed with 20 ul of 2× medium and 30 ul of 0.8% of Bacto Agar and 1.6 ul of drug (of appropriate concentration) in a vial and transferred to the solidified pre layers of the assay plates. The cells were then allowed to grow and form colonies at 37° C. and 5% C02 for 1 week. An intermittent feeding with 50 ul of appropriate 2× medium was performed after 3 days of experimental set up. 16 ul of Alamar Blue (1.5 mg/ml) was then added to all the wells to quantify the developed colonies. The plates were incubated for 24 hrs at 37° C. Absorbance was then measured at 630 nm. XY graph of log Percent viability was then plotted against log drug concentration.
(§6) Following plating efficiencies were standardized for Soft Agar Assay: […]

[5] = test system: PC3 prostate cancer cell line; assay: Soft agar colony-formation assay, PC3; type: cell-based; conditions: 1 week, Alamar Blue, read-out: IC50 in micromolar, PC3 (Soft Agar Assay)
Experimental: as §4, §5, §6

[6] = test system: PC3 spheres (cancer stem cells); assay: In vitro sphere-forming assay (cancer stem cells), PC3 in Prostosphere media; conditions: for 3D sphere count of PC3 in Prostosphere media: 2000 cells/well, n = 6 ± S.D; for viability at 0.0025 µM: read-out: % Viability of spheres (PC3), 0.0025 uM; for viability at 0.0025 µM / viability at 0.025 µM / viability at 0.25 µM / viability at 2.5 µM / viability at 25 µM: GCD = 100% viability; for viability at 0.025 µM: read-out: % Viability of spheres (PC3), 0.025 uM; for viability at 0.25 µM: read-out: % Viability of spheres (PC3), 0.25 uM; for viability at 2.5 µM: read-out: % Viability of spheres (PC3), 2.5 uM; for viability at 25 µM: read-out: % Viability of spheres (PC3), 25 uM
Description: (§7) In Vitro Sphere-forming Assay: Sphere assay measures the ability of cancer stem cells (CSCs) to form spheres in specially designed serum-free medium.
Materials and Reagents:50×B27 Supplement (Life Technologies, Invitrogen, Catlog No.: 17502-044), Fibroblast Growth Factor (FGF) (Sigma-Aldrich, Catlog No.: F029125), Epidermal Growth Factor (EGF) (Sigma-Aldrich, Catlog No.: E9644), Insulin (Sigma, Catlog No.: 19278), Dulbecco's Modified Eagle Medium/F12 (HiMedia Catlog No.: AL139-6), Dulbecco's Phosphate Buffered Saline (HiMedia Catlog No.: TL1006), Trypan Blue (TC193), Prostate Epithelial Media (LONZA, Catlog No.: CC-3166) MEGM (LONZA, Catlog No.: CC-3051), Heparin (Sigma, Catlog No.: H3393), Penstrep (HiMedia, Catlog No.: A002)
Prostosphere Media Preparation (For 100 mL): 1 g methyl cellulose autoclaved with magnetic stirrer, 100 mL plain media (Prostate Epithelial Basal Medium) was added and dissolved, under magnetic stirring. After complete dissolution, Insulin—40 μL, B27—2 mL, EGF—80 μL, Penstrep—1 ml was added.
(§8) Procedure—The cells were trypsinised and made into single-cell suspension by passing through cell strainers (100 μl and 40 μl, respectively), The cells were diluted at a concentration of 2000 cells/100 μL and suspended in either Mammosphere (for breast cell lines) or Prostosphere (for prostate cell lines). 100 μL of this suspension was added into each well of 96-well suspension plates and incubated at 37 C, 50 CO2 for 24 hrs. Appropriate concentrations of the drugs (2 L) were added into respective wells with 100 μL of stem cell culture medium. Plates were incubated at 37° C., 50% CO2 for 72 hrs. After incubation, 2.5 μL of the respective drug concentration and 50 μL of stem cell culture medium were added into each well and the plates were further incubated at 37° C., 500 CO2 for 72 hrs. 3 μL of the respective drug concentration was added with 50 μL of stem cell culture medium again after incubation and plates were reincubated for 72 hrs at 37° C., 500 CO2. Number of primary spheres formed for each concentration were counted. The spheres were converted to 0 viability of spheres compared to untreated (Growth Control with DMSO, GCD).

[7] = test system: MDAMB231 spheres (cancer stem cells); assay: In vitro sphere-forming assay (cancer stem cells), MDAMB231 in Mammosphere media; conditions: for 3D sphere count of MDAMB231 in Mammosphere media: 2000 cells/well, n = 6 ± S.D; for viability at 0.0025 µM / viability at 0.025 µM / viability at 0.25 µM / viability at 2.5 µM / viability at 25 µM: Homo sapiens, MDA-MB-231, read-out: % Viability of spheres (MDAMB231)
Experimental: as §7
Mammosphere Media Preparation (For 100 mL): 1 g methyl cellulose autoclaved with magnetic stirrer, 100 ml plain media (MEBM) was added and dissolved under magnetic stirring. After complete dissolution FGF—80 μL, EGF—40 μL, Penstrep—1 mL, Heparin—400 μL was added.
as §8

[8] = Homo sapiens, MDA-MB-231, 168 h

| SMILES | IC50 ([1]; Homo sapiens, MDA-MB-231, 48 h) [µM] | IC50 ([2]; 48 h) [µM] | IC50 ([3]; Homo sapiens, DU-145, 48 h) [µM] | IC50 [4, 8] [µM] | IC50 ([5]; 168 h) [µM] | 3D sphere count of PC3 in Prostosphere media ([6]; 0.0025 uM) | 3D sphere count of PC3 in Prostosphere media ([6]; 0.025 uM) | 3D sphere count of PC3 in Prostosphere media ([6]; 0.25 uM) | 3D sphere count of PC3 in Prostosphere media ([6]; 2.5 uM) | 3D sphere count of PC3 in Prostosphere media ([6]; 25 uM) | viability at 0.0025 µM [6] [%] | viability at 0.025 µM [6] [%] | viability at 0.25 µM [6] [%] | viability at 2.5 µM [6] [%] | viability at 25 µM [6] [%] | 3D sphere count of MDAMB231 in Mammosphere media ([7]; 0.0025 uM) | 3D sphere count of MDAMB231 in Mammosphere media ([7]; 0.025 uM) | 3D sphere count of MDAMB231 in Mammosphere media ([7]; 0.25 uM) | 3D sphere count of MDAMB231 in Mammosphere media ([7]; 2.5 uM) | 3D sphere count of MDAMB231 in Mammosphere media ([7]; 25 uM) | also measured |
| --- | --- | --- | --- | --- | --- | --- | --- | --- | --- | --- | --- | --- | --- | --- | --- | --- | --- | --- | --- | --- | --- |
| c1ccc2c(-c3ccc4c(c3)OCO4)ccc(OCCCCN3CCOCC3)c2c1 [Formula VIII, 4-(4-(1-(benzo[d][1,3]dioxol-5-yl)naphthalen-4-yloxy)butyl)morpholine] | 1.15 | 1.77 | 0.723 | 1.73 | 2.07 | 57(±2) | 49(±3) | 41(±2) | 36(±2) | 28(±3) | 69 | 59 | 50 | 44 | 34 | 54(±3) | 49(±4) | 39(±2) | 28(±3) | 19(±1) | viability at 0.0025 µM [7]: 76%; viability at 0.025 µM [7]: 69%; viability at 0.25 µM [7]: 55 ± 2%; viability at 2.5 µM [7]: 39%; viability at 25 µM [7]: 26% |
| c1cc2c(cc1-c1ccc(OCCCCCCN3CCOCC3)c3c1CCCC3)OCO2 [Formula XX, 4-(6-(5-(benzo[d][1,3]dioxol-5-yl)-1,2,3,4-tetrahydronaphthalen-8-yloxy)hexyl) morpholine] | 3.04 | 3.34 | 3.87 | 3.78 | 3.31 | 48(±5) | 37(±2) | 33(±4) | 15(±3) | 0(±0) | 58 | 45 | 40 | 18 | 0 | 48(±4) | 37(±4) | 27(±3) | 14(±4) | 0(±0) | viability at 0.0025 µM [7]: 61%; viability at 0.025 µM [7]: 47%; viability at 0.25 µM [7]: 34%; viability at 2.5 µM [7]: 17%; viability at 25 µM [7]: 0% |
| N.N.[Cl][Pt][Cl] [Cisplatin, reference compound] |  |  |  |  |  |  |  |  |  |  |  |  |  |  |  |  |  |  |  |  | IC50 [1]: 29.4 µM; IC50 [2]: 24 µM; IC50 [3]: 29.8 µM; IC50 [4]: 26.2 µM; IC50 [5]: 33.4 µM; 3D sphere count of PC3 in Prostosphere media ([6]; 250 uM): 29(±2) and 29(±5) and 25(±2) and 27(±2); 3D sphere count of MDAMB231 in Mammosphere media ([7]; 250 uM): 24(±3) and 25(±2) |
